According to patent publication US20250228239A1, “MOLECULES HAVING PESTICIDAL UTILITY, AND INTERMEDIATES, COMPOSITIONS, AND PROCESSES, RELATED THERETO” (priority 2024, published 2025):
Read-outs that look alike come from different tables or passages of the source.

How the values were obtained:
Type in all cases: in vivo
[1] = tested on: Beet Armyworm (Spodoptera exigua, LAPHEG); assay: Bioassays on Beet Armyworm (BAW), 128-well diet tray assay; details: Spodoptera exigua; for mortality at 50 µg/cm2: 168 h, second instar larvae, 50 μg/cm^2 of test molecule on artificial diet, 25° C., five to seven days, average of eight wells, read-out: BAW % Control (or Mortality) rating
Summary of the method: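 Eight diet wells per compound were treated at 50 μg/cm^2 (acetone-water 90:10), dried, then infested with 1–5 second-instar larvae each. After five to seven days at 25 °C under 14:10 photoperiod, mortality was scored and averaged across wells.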

[2] = tested on: Yellow Fever Mosquito (Aedes aegypti, AEDSAE); details: for YFM rating: Table ABC / ABC-DP rating; for YFM % Control (or Mortality) rating: about 1 day-old larvae, 4000 ppm master solution diluted with 90:10 water/acetone, 15 μL per well plus 220 μL larval mixture, 3 days
Summary of the method: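 Rating-scale grades reflect larval mortality scored per well after 3 days at room temperature under non-evaporative lids. Larvae (~1 day old, hatched overnight in liver-powder water) were added to six daughter plates per compound, prepared from a 4000 ppm DMSO stock diluted in 90:10 water/acetone.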

[3] = tested on: Cabbage Looper (Trichoplusia ni, TRIPNI); assay: Bioassays on Cabbage Looper (CL), 128-well diet tray assay; details: Trichoplusia ni; for mortality at 50 µg/cm2: 168 h, second instar larvae, 50 μg/cm^2 of test molecule on artificial diet, 25° C., five to seven days, average of eight wells, read-out: CL % Control (or Mortality) rating
Summary of the method: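 Second-instar larvae (1–5 per well) placed on artificial diet surface-treated with 50 μg/cm^2 test molecule applied in 90:10 acetone-water and dried. Held at 25° C., 14:10 light-dark, for five to seven days. Percent mortality scored per well and averaged over eight wells.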

[4] = Beet Armyworm, Table ABC / ABC-DP rating, read-out: BAW rating
[5] = Cabbage Looper, Table ABC / ABC-DP rating, read-out: CL rating
[6] = Table ABC: Biological Results, species BAW, read-out: BAW
[7] = Table ABC: Biological Results, species YFM
[8] = Table ABC: Biological Results, species CL, read-out: CL
[9] = Beet Armyworm, rating class, read-out: BAW
[10] = Yellow Fever Mosquito, rating class
[11] = Cabbage Looper, rating class, read-out: CL

SMILES	pest or weed control at 50 µg/cm2 [1, 4]	YFM rating ([2]; Yellow Fever Mosquito)	pest or weed control at 50 µg/cm2 [3, 5]	pest or weed control at 50 µg/cm2 [1, 6]	YFM [2, 7]	pest or weed control at 50 µg/cm2 [3, 8]	further results
Cc1c(Cl)cc(NC(=O)[C@H]2[C@H](c3ccc(F)c(Cl)c3)C2(Cl)Cl)cc1C(=O)NCC(F)(F)C(F)(F)F (relative stereo) [F2043, trans-3-Chloro-5-(2,2-dichloro-3-(3-chloro-4-fluorophenyl)cyclopropane-1-carboxamido)-2-methyl-N-(2,2,3,3,3-pentafluoropropyl)benzamide]	50 to 100%	A (80–100)	50 to 100%	–	–	–	–
C=C(F)c1c(F)ccc(NC(=O)c2cc(NC(=O)[C@H]3[C@H](c4cc(Cl)cc(Cl)c4)C3(Cl)Cl)ccc2Cl)c1F (relative stereo) [F1321, trans-2-Chloro-5-(2,2-dichloro-3-(3,5-dichlorophenyl)cyclopropane-1-carboxamido)-N-(2,4-difluoro-3-(1-fluorovinyl)phenyl)benzamide]	–	–	–	50 to 100%	A (80–100)	50 to 100%	–
Nc1c(F)ccc(NC(=O)c2cc(NC(=O)[C@H]3[C@@H](c4cc(Cl)c(F)c(Cl)c4)C3(Cl)Cl)ccc2Cl)c1F (relative stereo) [F1182, cis-N-(3-Amino-2,4-difluorophenyl)-2-chloro-5-(2,2-dichloro-3-(3,5-dichloro-4-fluorophenyl)cyclopropane-1-carboxamido)benzamide]	–	–	–	50 to 100%	A (80–100)	50 to 100%	–
Cl.NNC(=O)c1cc(NC(=O)[C@H]2[C@H](c3cc(Cl)cc(Cl)c3)C2(Cl)Cl)ccc1Cl (relative stereo) [F2567, trans-2,2-dichloro-N-(4-chloro-3-(hydrazinecarbonyl)phenyl)-3-(3,5-dichlorophenyl)cyclopropane-1-carboxamide hydrochloride]	50 to 100%	A (80–100)	50 to 100%	–	–	–	mortality at 50 µg/cm2 [1]: 50 to 100%; YFM % Control (or Mortality) rating [2]: A (80–100); mortality at 50 µg/cm2 [3]: 50 to 100%
CCCN(C(=O)CC#N)c1c(F)ccc(NC(=O)c2cc(NC(=O)[C@H]3[C@H](c4ccc(F)c(C(F)(F)F)c4)C3(Cl)Cl)ccc2Cl)c1F [F1841, 2-Chloro-N-(3-(2-cyano-N-propylacetamido)-2,4-difluorophenyl)-5-((1R,3R)-2,2-dichloro-3-(4-fluoro-3-(trifluoromethyl)phenyl)cyclopropane-1-carboxamido)benzamide]	50 to 100%	A (80–100)	50 to 100%	–	–	–	–
O=C(NCC(F)(F)F)c1cc(NC(=O)[C@H]2[C@H](c3c(F)c(F)c(F)c(F)c3F)C2(Cl)Cl)ccc1Cl (relative stereo) [F2002, trans-2-Chloro-5-(2,2-dichloro-3-(perfluorophenyl)cyclopropane-1-carboxamido)-N-(2,2,2-trifluoroethyl)benzamide]	50 to 100%	A (80–100)	50 to 100%	–	–	–	–
N#Cc1ccc(NNC(=O)c2cc(NC(=O)[C@H]3[C@H](c4cc(Cl)cc(Cl)c4)C3(Cl)Cl)ccc2Cl)cc1 (relative stereo) [F2554, trans-2,2-Dichloro-N-(4-chloro-3-(2-(4-cyanophenyl)hydrazine-1-carbonyl)phenyl)-3-(3,5-dichlorophenyl)cyclopropane-1-carboxamide]	50 to 100%	A (80–100)	50 to 100%	–	–	–	–
O=C(Nc1ccc(F)cc1)c1cc(NC(=O)[C@H]2[C@H](c3cc(Cl)c(Cl)c(Br)c3)C2(Cl)Cl)ccc1Cl (relative stereo) [F1005, trans-5-(3-(3-bromo-4,5-dichlorophenyl)-2,2-dichlorocyclopropane-1-carboxamido)-2-chloro-N-(4-fluorophenyl)benzamide]	–	–	–	50 to 100%	A (80–100)	50 to 100%	–
C=Cc1cc(NC(=O)c2cc(NC(=O)[C@H]3[C@H](c4cc(Cl)cc(Cl)c4)C3(Cl)Cl)ccc2Cl)ccc1F (relative stereo) [F1311, trans-2-chloro-5-(2,2-dichloro-3-(3,5-dichlorophenyl)cyclopropane-1-carboxamido)-N-(4-fluoro-3-vinylphenyl)benzamide]	–	–	–	50 to 100%	A (80–100)	50 to 100%	–
COCC(=O)N(C)c1c(F)ccc(NC(=O)c2cc(NC(=O)[C@H]3[C@H](c4ccc(Cl)c(Cl)c4)C3(Cl)Cl)ccc2Cl)c1F [F1630, 2-Chloro-5-((1R,3R)-2,2-dichloro-3-(3,4-dichlorophenyl)cyclopropane-1-carboxamido)-N-(2,4-difluoro-3-(2-methoxy-N-methylacetamido)phenyl)benzamide]	–	–	–	–	–	–	pest or weed control at 50 µg/cm2 [1, 9]: 50 to 100%; YFM [2, 10]: A (80–100); pest or weed control at 50 µg/cm2 [3, 11]: 50 to 100%
O=C(Nc1ccc(F)cc1F)c1cc(NC(=O)[C@H]2[C@H](c3cc(Cl)cc(Cl)c3)C2(F)F)ccc1Cl (relative stereo) [F1058, trans-2-Chloro-5-(3-(3,5-dichlorophenyl)-2,2-difluorocyclopropane-1-carboxamido)-N-(2,4-difluorophenyl)benzamide]	–	–	–	50 to 100%	A (80–100)	50 to 100%	–
O=C(NCC(F)(F)F)c1cc(NC(=O)[C@H]2[C@H](c3cc(C(F)(F)F)ccc3Cl)C2(Cl)Cl)ccc1Cl (relative stereo) [F2001, trans-2-Chloro-5-(2,2-dichloro-3-(2-chloro-5-(trifluoromethyl)phenyl)-cyclopropane-1-carboxamido)-N-(2,2,2-trifluoroethyl)benzamide]	50 to 100%	A (80–100)	50 to 100%	–	–	–	–
Cc1cc([C@@H]2[C@H](C(=O)Nc3ccc(Cl)c(C(=O)NCC(F)(F)F)c3)C2(Cl)Cl)cc(C(F)(F)F)c1F (relative stereo) [F2015, cis-2-Chloro-5-(2,2-dichloro-3-(4-fluoro-3-methyl-5-(trifluoromethyl)phenyl)-cyclopropane-1-carboxamido)-N-(2,2,2-trifluoroethyl)benzamide]	50 to 100%	A (80–100)	50 to 100%	–	–	–	–
O=C(Nc1ccc(F)c(NC(=O)C(F)F)c1F)c1cccc(NC(=O)[C@H]2[C@H](c3ccc(Cl)c(Cl)c3)C2(Cl)Cl)c1 [F1447, 3-((1R,3R)-2,2-Dichloro-3-(3,4-dichlorophenyl)cyclopropane-1-carboxamido)-N-(3-(2,2-difluoroacetamido)-2,4-difluorophenyl)benzamide]	–	–	–	–	–	–	pest or weed control at 50 µg/cm2 [1, 9]: 50 to 100%; YFM [2, 10]: A (80–100); pest or weed control at 50 µg/cm2 [3, 11]: 50 to 100%
CC(=O)Nc1c(F)cc(F)c(NC(=O)c2cc(NC(=O)[C@H]3[C@H](c4ccc(Cl)c(Cl)c4)C3(Cl)Cl)ccc2Cl)c1F [F1629, N-(3-Acetamido-2,4,6-trifluorophenyl)-2-chloro-5-((1R,3R)-2,2-dichloro-3-(3,4-dichlorophenyl)cyclopropane-1-carboxamido)benzamide]	–	–	–	–	–	–	pest or weed control at 50 µg/cm2 [1, 9]: 50 to 100%; YFM [2, 10]: B (More than 0 – Less than 80); pest or weed control at 50 µg/cm2 [3, 11]: 50 to 100%
Cc1c(N)ccc(NC(=O)c2cc(NC(=O)[C@H]3[C@H](c4cc(Cl)cc(Cl)c4)C3(Cl)Cl)ccc2Cl)c1C (relative stereo) [F1229, trans-N-(4-amino-2,3-dimethylphenyl)-2-chloro-5-(2,2-dichloro-3-(3,5-dichlorophenyl)cyclopropane-1-carboxamido)benzamide]	–	–	–	50 to 100%	A (80–100)	50 to 100%	–
O=C(Nc1ccc(F)c(NC(=O)C(F)(F)F)c1)c1cc(NC(=O)[C@H]2[C@H](c3ccc(F)c(Cl)c3)C2(Cl)Cl)ccc1Cl [F1814, 2-Chloro-5-((1R,3R)-2,2-dichloro-3-(3-chloro-4-fluorophenyl)cyclopropane-1-carboxamido)-N-(4-fluoro-3-(2,2,2-trifluoroacetamido)phenyl)benzamide]	50 to 100%	A (80–100)	50 to 100%	–	–	–	–
CC(=O)Nc1ccc(NC(=O)c2cc(NC(=O)[C@H]3[C@H](c4ccc(F)c(Cl)c4)C3(Cl)Cl)cc(F)c2Cl)cc1 (relative stereo) [F1154, trans-N-(4-Acetamidophenyl)-2-chloro-5-(2,2-dichloro-3-(3-chloro-4-fluorophenyl)cyclopropane-1-carboxamido)-3-fluorobenzamide]	–	–	–	50 to 100%	A (80–100)	50 to 100%	–
Nc1c(F)ccc(NC(=O)c2cc(NC(=O)[C@H]3[C@H](c4ccc(Cl)c(Cl)c4)C3(Cl)Cl)ccc2Cl)c1F [DP2, N-(3-Amino-2,4-difluorophenyl)-2-chloro-5-((1R,3R)-2,2-dichloro-3-(3,4-dichlorophenyl)cyclopropane-1-carboxamido)benzamide]	50 to 100%	A (80–100)	50 to 100%	–	–	–	mortality at 50 µg/cm2 [1]: 50 to 100%; YFM % Control (or Mortality) rating [2]: A (80–100); mortality at 50 µg/cm2 [3]: 50 to 100%
